Reference: PubChem BioAssay (NCI)
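The compound was tested at five concentrations on cells cultured in 96-well plates, with a 48-hour exposure period. TGI marks complete inhibition of growth.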

Tests used:
Experiment in all cases: NCI tumour cell line growth inhibition, 48 h
SR leukemia = test system: SR leukemia
CCRF-CEM leukemia = test system: CCRF-CEM leukemia
MCF7 breast = test system: MCF7 breast
HCT-116 colon = test system: HCT-116 colon
HOP-62 NSCLC = test system: HOP-62 NSCLC
SK-OV-3 ovarian = test system: SK-OV-3 ovarian
MOLT-4 leukemia = test system: MOLT-4 leukemia
UACC-62 melanoma = test system: UACC-62 melanoma
CAKI-1 renal = test system: CAKI-1 renal
UACC-257 melanoma = test system: UACC-257 melanoma
LOX IMVI melanoma = test system: LOX IMVI melanoma
HL-60(TB) leukemia = test system: HL-60(TB) leukemia
SN12C renal = test system: SN12C renal
SNB-19 CNS = test system: SNB-19 CNS
UO-31 renal = test system: UO-31 renal
SF-539 CNS = test system: SF-539 CNS
OVCAR-3 ovarian = test system: OVCAR-3 ovarian
NCI-H226 lung = test system: NCI-H226 lung
KM12 colon = test system: KM12 colon
COLO 205 colon = test system: COLO 205 colon
HCT-15 colon = test system: HCT-15 colon
ACHN renal = test system: ACHN renal
HS 578T breast = test system: HS 578T breast
A549 NSCLC = test system: A549 NSCLC
SF-295 CNS = test system: SF-295 CNS
SF-268 CNS = test system: SF-268 CNS
MDA-MB-231 breast = test system: MDA-MB-231 breast
SK-MEL-2 melanoma = test system: SK-MEL-2 melanoma
IGROV1 ovarian = test system: IGROV1 ovarian
OVCAR-5 ovarian = test system: OVCAR-5 ovarian
OVCAR-8 ovarian = test system: OVCAR-8 ovarian
NCI/ADR-RES ovarian = test system: NCI/ADR-RES ovarian
NCI-H23 lung = test system: NCI-H23 lung
RPMI-8226 leukemia = test system: RPMI-8226 leukemia
MDA-N = test system: MDA-N
RXF 393 renal = test system: RXF 393 renal
T-47D breast = test system: T-47D breast
DU-145 prostate = test system: DU-145 prostate
MDA-MB-435 = test system: MDA-MB-435
786-0 renal = test system: 786-0 renal
K-562 leukemia = test system: K-562 leukemia
M14 melanoma = test system: M14 melanoma
SK-MEL-5 melanoma = test system: SK-MEL-5 melanoma
HOP-92 NSCLC = test system: HOP-92 NSCLC
PC-3 prostate = test system: PC-3 prostate
NCI-H460 lung = test system: NCI-H460 lung
NCI-H522 lung = test system: NCI-H522 lung
U251 CNS = test system: U251 CNS
SW-620 colon = test system: SW-620 colon
A498 renal = test system: A498 renal
HCC-2998 colon = test system: HCC-2998 colon
BT-549 breast = test system: BT-549 breast
SNB-75 CNS = test system: SNB-75 CNS
EKVX NSCLC = test system: EKVX NSCLC
TK-10 renal = test system: TK-10 renal
OVCAR-4 ovarian = test system: OVCAR-4 ovarian
HT29 colon = test system: HT29 colon
SK-MEL-28 melanoma = test system: SK-MEL-28 melanoma

## CO/N=C(/C)c1cccc(Nc2nc3ccc(Cl)cc3c3[nH]c4ccccc4c23)c1
SR leukemia
  TGI: 14.6 µM
CCRF-CEM leukemia
  TGI: > 100 µM
MCF7 breast
  TGI: 26.2 µM
HCT-116 colon
  TGI: 14.7 µM
HOP-62 NSCLC
  TGI: 24.4 µM
SK-OV-3 ovarian
  TGI: 49.6 µM
MOLT-4 leukemia
  TGI: 7.91 µM
UACC-62 melanoma
  TGI: 19.8 µM
CAKI-1 renal
  TGI: 24.3 µM
UACC-257 melanoma
  TGI: 29.1 µM
LOX IMVI melanoma
  TGI: 26 µM
HL-60(TB) leukemia
  TGI: 32 µM
SN12C renal
  TGI: 25.9 µM
SNB-19 CNS
  TGI: 35.6 µM
UO-31 renal
  TGI: 21.7 µM
SF-539 CNS
  TGI: 30.1 µM
OVCAR-3 ovarian
  TGI: 18.5 µM
NCI-H226 lung
  TGI: 27.9 µM
KM12 colon
  TGI: 14.6 µM
COLO 205 colon
  TGI: 19.9 µM
HCT-15 colon
  TGI: 27.1 µM
ACHN renal
  TGI: 13.5 µM
HS 578T breast
  TGI: 45.8 µM
A549 NSCLC
  TGI: 30.2 µM
SF-295 CNS
  TGI: 15.3 µM
SF-268 CNS
  TGI: 29.5 µM
MDA-MB-231 breast
  TGI: 27.8 µM
SK-MEL-2 melanoma
  TGI: 26.9 µM
IGROV1 ovarian
  TGI: 29.4 µM
OVCAR-5 ovarian
  TGI: 23.7 µM
OVCAR-8 ovarian
  TGI: 23.1 µM
NCI/ADR-RES ovarian
  TGI: 33 µM
NCI-H23 lung
  TGI: 28.5 µM
RPMI-8226 leukemia
  TGI: 17 µM
MDA-N
  TGI: 24.3 µM
RXF 393 renal
  TGI: 6.92 µM
T-47D breast
  TGI: 7.28 µM
DU-145 prostate
  TGI: 24.9 µM
MDA-MB-435
  TGI: 21.4 µM
786-0 renal
  TGI: 20.5 µM
K-562 leukemia
  TGI: 34.6 µM
M14 melanoma
  TGI: 20.7 µM
SK-MEL-5 melanoma
  TGI: 16.9 µM
HOP-92 NSCLC
  TGI: 21 µM
PC-3 prostate
  TGI: 32.6 µM
NCI-H460 lung
  TGI: 18.8 µM
NCI-H522 lung
  TGI: 13.4 µM
U251 CNS
  TGI: 29.1 µM
SW-620 colon
  TGI: 21.8 µM
A498 renal
  TGI: 14.2 µM

## Cc1csc(NNC(N)=O)n1
SR leukemia
  TGI: > 100 µM
CCRF-CEM leukemia
  TGI: > 100 µM
MCF7 breast
  TGI: > 100 µM
HCT-116 colon
  TGI: > 100 µM
HOP-62 NSCLC
  TGI: > 100 µM
SK-OV-3 ovarian
  TGI: > 100 µM
MOLT-4 leukemia
  TGI: > 100 µM
HCC-2998 colon
  TGI: > 100 µM
UACC-62 melanoma
  TGI: > 100 µM
CAKI-1 renal
  TGI: > 100 µM
UACC-257 melanoma
  TGI: > 100 µM
LOX IMVI melanoma
  TGI: > 100 µM
HL-60(TB) leukemia
  TGI: > 100 µM
SN12C renal
  TGI: > 100 µM
SNB-19 CNS
  TGI: > 100 µM
UO-31 renal
  TGI: > 100 µM
SF-539 CNS
  TGI: > 100 µM
OVCAR-3 ovarian
  TGI: > 100 µM
NCI-H226 lung
  TGI: > 100 µM
KM12 colon
  TGI: > 100 µM
COLO 205 colon
  TGI: > 100 µM
HCT-15 colon
  TGI: > 100 µM
ACHN renal
  TGI: > 100 µM
HS 578T breast
  TGI: > 100 µM
BT-549 breast
  TGI: > 100 µM
A549 NSCLC
  TGI: > 100 µM
SF-295 CNS
  TGI: > 100 µM
SNB-75 CNS
  TGI: > 100 µM
SF-268 CNS
  TGI: > 100 µM
MDA-MB-231 breast
  TGI: > 100 µM
EKVX NSCLC
  TGI: > 100 µM
SK-MEL-2 melanoma
  TGI: > 100 µM
IGROV1 ovarian
  TGI: > 100 µM
TK-10 renal
  TGI: > 100 µM
OVCAR-5 ovarian
  TGI: > 100 µM
OVCAR-8 ovarian
  TGI: > 100 µM
NCI/ADR-RES ovarian
  TGI: > 100 µM
OVCAR-4 ovarian
  TGI: > 100 µM
NCI-H23 lung
  TGI: > 100 µM
HT29 colon
  TGI: > 100 µM
MDA-N
  TGI: > 100 µM
RXF 393 renal
  TGI: > 100 µM
DU-145 prostate
  TGI: > 100 µM
MDA-MB-435
  TGI: > 100 µM
786-0 renal
  TGI: > 100 µM
M14 melanoma
  TGI: > 100 µM
SK-MEL-5 melanoma
  TGI: > 100 µM
HOP-92 NSCLC
  TGI: > 100 µM
PC-3 prostate
  TGI: > 100 µM
NCI-H460 lung
  TGI: > 100 µM
NCI-H522 lung
  TGI: > 100 µM
U251 CNS
  TGI: > 100 µM
SK-MEL-28 melanoma
  TGI: > 100 µM
SW-620 colon
  TGI: > 100 µM
